Measured values: patent US11548888B2, “KRas G12C inhibitors” (Mirati Therapeutics, Inc., priority 2019, dated 2023)

Target: T1, KRas G12C (Homo sapiens, UniProt P01116, G12C)
T1 construct: NCI-H358 cells (ATCC CRL-5807) express KRas G12C
Test: Inhibition of KRas G12C-dependent cell growth: Phospho-ERK in NCI-H358 cells
Type: cell-based
Conditions: NCI-H358 cells expressing KRas G12C; Phospho-ERK (Thr202/Tyr204) normalized to GAPDH; 3 hours compound; 4 parameter fit
Description: The cellular inhibition of KRAs G12C by exemplary compounds of the present invention was determined by measuring the amount of a downstream marker of KRas activity, phosphorylated ERK (“Phospho-ERK”).
NCI-H358 cells (ATCC CRL-5807) express KRas G12C and were grown in RPMI medium supplemented with 10% fetal bovine serum, penicillin/streptomycin and 10 mM HEPES. Cells were plated in poly-D-Lysine coated 96-well plates at a concentration of 50,000 cells/well and allowed to attach for 8-12 hours. Diluted compounds were then added at a final concentration of 0.5% DMSO. After 3 hours, the medium was removed, 150 μL of 4% formaldehyde was added and the plates were incubated for 20 minutes. The plates were washed with PBS, and permeabilized using 150 μL of ice cold 100% methanol for 10 minutes. Non-specific antibody binding to the plates was blocked using 100 μL Licor Blocking Buffer (Li-Cor Biotechnology, Lincoln Nebr.) for 1 hour at room temperature. Positive control samples and samples lacking cells were parallel processed with test samples as standards.
The amount Phospho-ERK was determined using an antibody specific for the phosphorylated form of ERK and compared to the amount of GAPDH. Primary antibodies used for detection were added as follows: Phospho-ERK (Cell Signaling cs9101) diluted 1:500 and GAPDH (Millipore MAB374) diluted 1:5000 in Licor block+0.05% Tween 20. The plates were incubated for 2 hours at room temperature. The plates were washed with PBS+0.05% Tween 20.
Secondary antibodies used to visualize primary antibodies were added as follows: Anti-rabbit-680 diluted 1:1000 and Anti-mouse-800 diluted 1:1000 in Licor Block+0.05% Tween 20 and incubated for 1 hour at room temperature. The plates were washed with PBS+0.05% Tween 20. A 100 μL aliquot of PBS was added to each well and the plates were read on a LICOR AERIUS plate reader.
The pERK(Thr202/Tyr204) signal was normalized with the GAPDH signal and percent of DMSO control values were calculated. IC50 values were generated using a 4 parameter fit of the dose response curve.

T1 sequence (P01116 1-188 isoform P01116-2 G12C): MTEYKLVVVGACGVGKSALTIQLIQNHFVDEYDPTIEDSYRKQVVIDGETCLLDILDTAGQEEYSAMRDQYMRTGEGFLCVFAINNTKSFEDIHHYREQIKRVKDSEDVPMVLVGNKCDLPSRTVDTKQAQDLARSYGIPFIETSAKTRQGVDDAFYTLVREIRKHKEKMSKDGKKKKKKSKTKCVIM

C=C(F)C(=O)N1CCN(c2nc(OC[C@@H]3CC(F)(F)CN3C(C)C)nc3c(F)c(-c4cccc5ccc(F)c(Cl)c45)ncc23)C[C@@H]1CC#N [Example 118]
IC50: 329 nM

C=CC(=O)N1CCN(c2ncnc3c(F)c(-c4cc(O)cc5ccccc45)ncc23)C[C@@H]1CC#N [Example 220, (S)-2-(1-acryloyl-4-(8-fluoro-7-(3-hydroxynaphthalen-1-yl)pyrido[4,3-d]pyrimidin-4-yl)piperazin-2-yl)acetonitrile]
IC50: 22 nM

C=C(F)C(=O)N1CCN(c2nc(OCC3CN(C)CC3(F)F)nc3c(F)c(-c4cccc5ccc(F)c(Cl)c45)ncc23)C[C@@H]1CC#N (single isomer, unassigned) [Example 179]
IC50: 224 nM

C=CC(=O)N1CC[C@@H]2[C@H]1CN2c1nc(OC2COC2)nc2c(F)c(-c3cccc4ccc(F)c(Cl)c34)ncc12 [Example 265]
IC50: 1490 nM

C=C(F)C(=O)N1CCN(c2nc(OC[C@@H]3CCCN3C)nc3c(F)c(-c4c(O)cccc4F)ncc23)C[C@@H]1CC#N [Example 81]
IC50: 1100 nM

C=CC(=O)N1CCN(c2nc(OC[C@@H]3CCCN3C)nc3cc(-c4cccc5ccccc45)ncc23)C[C@@H]1CC#N [Example 5, 2-[(2S)-4-[2-[[(2S)-1-methylpyrrolidin-2-yl]methoxy]-7-(1-naphthyl)pyrido[4,3-d]pyrimidin-4-yl]-1-prop-2-enoyl-piperazin-2-yl]acetonitrile]
IC50: 45 nM

C=C(F)C(=O)N1CCN(c2nc(OCC3(C)C(OC)CN3C)nc3c(F)c(-c4cccc5ccc(F)c(Cl)c45)ncc23)C[C@@H]1CC#N (some centres unmarked) [Example 208]
IC50: 4 nM

C=C(F)C(=O)N1CCN(c2nc(OC[C@@H]3CCCN3C)nc3c(F)c(-c4nc(N)cc5ccccc45)ncc23)C[C@@H]1CC#N [Example 107]
IC50: 156 nM

C=C(F)C(=O)N1CCN(c2nc(NC3CCN(C4CC4)CC3)nc3c(F)c(-c4cccc5cccc(Cl)c45)ncc23)C[C@@H]1CC#N [Example 97]
IC50: 2520 nM

Cc1cccc2cccc(-c3ncc4c(N5CCN(C(=O)/C=C/CF)[C@@H](CC#N)C5)nc(OCCCN5C[C@@H]6C[C@H]5CO6)nc4c3F)c12 [Example 30, 2-[(2S)-1-[(E)-4-fluorobut-2-enoyl]-4-[8-fluoro-7-(8-methyl-1-naphthyl)-2-[3-[(1S,4S)-2-oxa-5-azabicyclo[2.2.1]heptan-5-yl]propoxy]pyrido[4,3-d]pyrimidin-4-yl]piperazin-2-yl]acetonitrile]
IC50: 131 nM

C=CC(=O)N1CCN(c2ncnc3c(F)c(-c4c(N)c(Cl)cc(Cl)c4F)ncc23)C[C@@H]1CC#N [Example 243]
IC50: 1200 nM

C=CC(=O)N1CCN(c2nc(OC[C@@H]3CCCN3C)nc3c(F)c(-c4cncc5cccc(Cl)c45)ncc23)[C@@H](C)C1 [Example 96]
IC50: 200 nM

C=CC(=O)N1CCN(c2nc(OC[C@@H]3CCCN3C)nc3c(F)c(-c4ccccc4F)ncc23)CC1 [Example 184]
IC50: 10000 nM

C=CC(=O)N1C[C@@H]2[C@H]1CCN2c1ncnc2c(F)c(-c3cccc4ccc(F)c(Cl)c34)ncc12 [Example 190]
IC50: 10000 nM

C=C(F)C(=O)N1CCN(c2nc(OC[C@@H]3CCCN3CCF)nc3c(F)c(-c4cccc5ccc(F)c(Cl)c45)ncc23)C[C@@H]1CC#N [Example 182]
IC50: 27 nM

C=C(F)C(=O)N1CCN(c2nc(OCCNC(=O)C(C)C)nc3c(F)c(-c4cccc5ccc(F)c(Cl)c45)ncc23)C[C@@H]1CC#N [Example 230]
IC50: 1850 nM

COC/C=C/C(=O)N1CCN(c2nc(OC[C@@H]3C[C@@H](F)CN3C)nc3c(F)c(-c4cccc5cccc(Cl)c45)ncc23)C[C@@H]1CC#N [Example 44, 2-[(2S)-4-[7-(8-chloro-1-naphthyl)-8-fluoro-2-[[(2S,4R)-4-fluoro-1-methyl-pyrrolidin-2-yl]methoxy]pyrido[4,3-d]pyrimidin-4-yl]-1-[(E)-4-methoxybut-2-enoyl]piperazin-2-yl]acetonitrile]
IC50: 15 nM

C=CC(=O)N1CCN(c2nc(OC[C@@H]3CCCN3C)nc3c(F)c(-c4cncc5cccc(Cl)c45)ncc23)C[C@@H]1CC#N [Example 20, 2-[(2S)-4-[7-(5-chloro-4-isoquinolyl)-8-fluoro-2-[[(2S)-1-methylpyrrolidin-2-yl]methoxy]pyrido[4,3-d]pyrimidin-4-yl]-1-prop-2-enoyl-piperazin-2-yl]acetonitrile]
IC50: 3 nM

C=C(F)C(=O)N1CCN(c2ncnc3c(F)c(-c4cccc5cccc(Cl)c45)ncc23)C[C@@H]1CC#N [Example 106]
IC50: 1540 nM

C=CC(=O)N1CC[C@@H]2[C@H]1CN2c1ncnc2c(F)c(-c3cncc4cccc(Cl)c34)ncc12 [Example 251]
IC50: 799 nM

C=CC(=O)N1CC2(CCN(c3nc(OC4CCN(C5CCOCC5)CC4)nc4c(F)c(-c5cccc6cccc(Cl)c56)ncc34)CC2)C1 [Example 74]
IC50: 1350 nM

COC/C=C/C(=O)N1CCN(c2nc(OC[C@@H]3CCCN3C)nc3c(F)c(-c4cncc5cccc(Cl)c45)ncc23)C[C@@H]1CC#N [Example 88]
IC50: 77 nM

C=C(F)C(=O)N1CCN(c2nc(OC[C@@H]3C[C@@H](F)CN3C)nc3c(F)c(-c4cccc5cccc(Cl)c45)ncc23)C[C@@H]1CC#N [Example 42, 2-[(2S)-4-[7-(8-chloro-1-naphthyl)-8-fluoro-2-[[(2S,4R)-4-fluoro-1-methyl-pyrrolidin-2-yl]methoxy]pyrido[4,3-d]pyrimidin-4-yl]-1-(2-fluoroprop-2-enoyl)piperazin-2-yl]acetonitrile]
IC50: 18 nM

C=CC(=O)N1CC[C@@H]2[C@H]1CN2c1nc(N2CC(N(C)C)C2)nc2c(F)c(-c3cccc4ccc(F)c(Cl)c34)ncc12 [Example 273]
IC50: 16 nM

C=C(F)C(=O)N1CCN(c2nc(OC[C@@H]3CCCN3C)nc3c(F)c(-c4c(C)ccc5cnn(C)c45)ncc23)C[C@@H]1CC#N [Example 99]
IC50: 444 nM

C=CC(=O)N1CCN(c2nc(C)nc3c(F)c(-c4cc(O)cc5ccccc45)ncc23)CC1 [Example 206]
IC50: 1680 nM

C=C(F)C(=O)N1CCN(c2nc(OC[C@@H]3CCCN3C)nc3c(F)c(-c4ccccc4F)ncc23)C[C@@H]1CC#N [Example 87]
IC50: 4380 nM

C=C(F)C(=O)N1CCN(c2nc(OC[C@@H]3C[C@@H](OC)CN3C)nc3c(F)c(-c4cccc5cccc(C)c45)ncc23)C[C@@H]1CC#N [Example 15, 2-[(2S)-4-[8-fluoro-2-[[(2S,4R)-4-methoxy-1-methyl-pyrrolidin-2-yl]methoxy]-7-(8-methyl-1-naphthyl)pyrido[4,3-d]pyrimidin-4-yl]-1-(2-fluoroprop-2-enoyl)piperazin-2-yl]acetonitrile]
IC50: 50 nM

C=C(F)C(=O)N1CCN(c2nc(OC[C@H]3[C@@H](F)CCN3C)nc3c(F)c(-c4cccc5ccc(F)c(Cl)c45)ncc23)C[C@@H]1CC#N [Example 177]
IC50: 51 nM

C=CC(=O)N1CCN(c2ncnc3c(F)c(-c4cccc5cc(C)ccc45)ncc23)CC1 [Example 302, 1-(4-(8-fluoro-7-(6-methylnaphthalen-1-yl)pyrido[4,3-d]pyrimidin-4-yl)piperazin-1-yl)prop-2-en-1-one]
IC50: 10000 nM

CN1CCC[C@H]1COc1nc(N2CCN(C(=O)/C=C/CF)[C@@H](CC#N)C2)c2cnc(-c3cccc4cccc(Cl)c34)c(F)c2n1 [Example 23, 2-((S)-4-(7-(8-chloronaphthalen-1-yl)-8-fluoro-2-(((S)-1-methylpyrrolidin-2-yl)methoxy)pyrido[4,3-d]pyrimidin-4-yl)-1-((E)-4-fluorobut-2-enoyl)piperazin-2-yl)acetonitrile]
IC50: 18 nM

C=C(F)C(=O)N1CCN(c2nc(OC[C@@H]3CCCN3C(C)C)nc3c(F)c(-c4cccc5ccc(F)c(Cl)c45)ncc23)C[C@@H]1CC#N [Example 121]
IC50: 63 nM

C=CC(=O)N1CCN(c2ncnc3c(F)c(-c4cc(O)cc5cccc(Cl)c45)ncc23)CC1 [Example 178]
IC50: 63 nM

C=C(F)C(=O)N1CCN(c2nc(OC[C@H]3CCCN3C)nc3c(F)c(-c4cccc5cccc(Cl)c45)ncc23)C[C@@H]1CC#N [Example 35, 2-[(2S)-4-[7-(8-chloro-1-naphthyl)-8-fluoro-2-[[(2R)-1-methylpyrrolidin-2-yl]methoxy]pyrido[4,3-d]pyrimidin-4-yl]-1-(2-fluoroprop-2-enoyl)piperazin-2-yl]acetonitrile]
IC50: 27 nM

C=C(F)C(=O)N1CCN(c2nc(OC[C@@H]3C[C@@H](OC)CN3C)nc3c(F)c(-c4cncc5cccc(Cl)c45)ncc23)C[C@@H]1CC#N [Example 56, 2-[(2S)-4-[7-(5-chloro-4-isoquinolyl)-8-fluoro-2-[[(2S,4R)-4-methoxy-1-methyl-pyrrolidin-2-yl]methoxy]pyrido[4,3-d]pyrimidin-4-yl]-1-(2-fluoroprop-2-enoyl)piperazin-2-yl]acetonitrile]
IC50: 28 nM
